The target in series [1] is hLPAR1 (human lysophosphatidic acid receptor 1) (Homo sapiens, UniProt Q92633). The experiment in a line: FLIPR assay of intracellular calcium increase induced by activation of hLPAR1 expressed in CHO-K1 cells. The class given is cell-based. The settings on record: CHO-K1 cells expressing hLPAR1, agonist oleoyl-L-α-lysophosphatidic acid 1 μM; read-out: LPAR1 IC50. The procedure, abridged:
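CHO-K1 cells expressing hLPAR1 were loaded with Fluo-4 AM for 1.0 h at 37° C, then preincubated 30 min at room temperature with compound. Oleoyl-LPA was added at 1 μM final, and calcium fluorescence was recorded by FLIPR for 2 min at 1-s intervals to assess antagonism.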
In general terms: A change in cytosolic calcium serves as a functional read-out for many receptors and channels.

Series [2] concerns A2058 (human melanoma cells). The experiment in a line: A2058 cell scratch (migration) assay with LPA. The class given is cell-based. The settings on record: 10 μM LPA, scratch area at 24 h.
A short description of series [3]: In vitro cytotoxicity assay in HepG2 cells, CCK-8 method. The class given is cell-based. The settings on record: human. The essentials:
(§1)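 Cells plated at 50,000/well, grown overnight to 80-90% confluence, then given fresh medium with graded compound or DMSO for 48 h at 37°C, 5% CO2. After PBS washes, CCK-8 added for 1.5 h at 37°C in the dark; OD450 read and CC50 calculated.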
For orientation: Tetrazolium dyes change colour on reduction, which living cells bring about.

Series [4] is described as follows: In vitro metabolic stability, human liver microsomes. The class given is in vitro ADME. The settings on record: 1 mg/mL liver microsome protein, 37° C., read-out: Metabolism in human liver microsome T½ min. How it is done: (§2) The in vitro metabolic stability of the compounds disclosed herein was determined through incubation of liver microsomes of various species. A proper amount of test compound was added into a liver microsome reaction system (1 mg/mL liver microsome protein, 25 U/mL glucose-6 phosphate dehydrogenase, 1 mM NADP, 6 mM D-glucose 6-phosphate and 5 mM MgCl2), and then the mixture was incubated in a water bath kettle at 37° C. to start reaction. At each time point, 100 μL of the reaction system was added into a centrifuge tube containing 400 μL of internal standard working solution (containing a 200 ng/mL solution of dexamethasone, diclofenac, tolbutamide and labetalol in acetonitrile) precooled at 0° C. so as to stop the reaction, and the mixture was then centrifuged at 10,000 g for 10 min at 4° C. The supernatant was collected for LC-MS assay so as to obtain the values of in vitro metabolic half-life of the test compounds in liver microsomes of various species.

Series [5] is described as follows: In vitro metabolic stability, rat liver microsomes. The class given is in vitro ADME. The settings on record: 1 mg/mL liver microsome protein, 37° C., read-out: Metabolism in rat liver microsome T½ min. How it is done: as §2
On the technique in general: Microsomes from liver hold many membrane-bound enzymes, among them those of drug oxidation.

The nature of series [6]: In vitro metabolic stability, mouse liver microsomes. The class given is in vitro ADME. The settings on record: 1 mg/mL liver microsome protein, 37° C., read-out: Metabolism in mouse liver microsome T½ min. How it is done: as §2
The next series concerns HepG2 cells. The experiment in a line: In vitro cytotoxicity assay in HepG2 cells, CCK-8 method. The settings on record: 48 h. The class given is cell-based. The procedure, abridged: as §1

SMILES strings stand for the structures.

Sequence of hLPAR1 (human lysophosphatidic acid receptor 1) (Q92633 whole entry): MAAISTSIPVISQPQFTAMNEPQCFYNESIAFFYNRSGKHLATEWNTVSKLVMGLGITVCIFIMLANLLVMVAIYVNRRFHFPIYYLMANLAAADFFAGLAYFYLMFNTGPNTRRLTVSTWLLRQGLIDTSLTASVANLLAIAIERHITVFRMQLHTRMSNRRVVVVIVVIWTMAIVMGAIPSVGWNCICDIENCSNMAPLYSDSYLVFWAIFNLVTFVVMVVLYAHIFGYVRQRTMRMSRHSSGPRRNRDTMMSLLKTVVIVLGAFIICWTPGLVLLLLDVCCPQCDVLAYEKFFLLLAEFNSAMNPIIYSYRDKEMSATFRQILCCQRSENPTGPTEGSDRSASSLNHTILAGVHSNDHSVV

Broadly, the IC50 is the concentration that gives 50% inhibition. As a reminder, the CC50 is the concentration giving 50% cytotoxicity. High values mean better tolerance by the cells, low ones harm at low concentration. As for `CN(C(=O)OCc1c(-c2ccc(O[C@H]3CCC[C@H](C(=O)O)C3)c(CF)n2)cnn1C)C1CCCC1` (racemic) [Compound 89], the IC50 in series [1] lay within 0.05 to 0.3 µM. For the same compound, the “Cell migration inhibition rate (%)” value in series [2] was “A (A: 50-70%)”. In series [3], this compound gave a CC50 at 48 h of 14.3 µM. The half-life was determined as 449 min in series [4], 57.5 min in series [5] and 61.2 h in series [6].
`Cc1onc(-c2ccc(O[C@H]3CCC[C@H](C(=O)O)C3)cc2)c1COC(=O)N(C)C1CCCC1` (racemic) [Compound 7, (+/−)-(1S,3S)-3-(4-(4-(((cyclopentyl(methyl)carbamoyl)oxy)methyl)-5-methylisoxazol-3-yl)phenoxy)cyclohexane-1-carboxylic Acid]: in series [1], the half-inhibitory concentration (IC50) is < 0.05 µM. The “Cell migration inhibition rate (%)” value in series [2] was “A (A: 50-70%)”. For the same compound, the CC50 at 48 h in series [3] was > 200 µM. Further, the half-life in series [4] was found to be 109 min; in series [5], 2.81 min; in series [6] it was 2.48 h.
Consider `CN(C(=O)OCc1ocnc1-c1ccc(O[C@H]2CCC[C@H](C(=O)O)C2)cc1)C1CCCC1` (racemic) [Compound 8, (+/−)-(1S,3S)-3-(4-(5-(((cyclopentyl(methyl)carbamoyl)oxy)methyl)oxazol-4-yl)phenoxy)cyclohexane-1-carboxylic Acid], for which the IC50 in series [1] lay within 0.3 to 10 µM. The “Cell migration inhibition rate (%)” value in series [2] is reported as “C (C: 0-30%)”. In series [3], the CC50 at 48 h is > 200 µM. Moreover, the figures for the half-life in series [4], in series [5] and in series [6] were > 30 min, > 30 min and > 0.5 h, respectively.
In the case of `CN(C(=O)OCc1c(-c2ccc(O[C@H]3CCC[C@H](C(=O)O)C3)c(F)c2)cnn1C)C1CCCC1` (racemic) [Compound 20, (+/−)-(1S,3S)-3-(4-(5-(((cyclopentyl(methyl)carbamoyl)oxy)methyl)-1-methyl-1H-pyrazol-4-yl)-2-fluorophenoxy)cyclohexane-1-carboxylic Acid], in series [1], the IC50 was < 0.05 µM. Also, the “Cell migration inhibition rate (%)” value in series [2] is “B (B: 30-50%)”. For the same compound, the CC50 at 48 h in series [3] is > 200 µM. Also, the half-life is > 30 min in series [4], > 30 min in series [5] and > 0.5 h in series [6].
As to `Cc1nsc(-c2ccc(O[C@H]3CCC[C@H](C(=O)O)C3)cc2)c1COC(=O)N(C)C1CCCC1` (racemic) [Compound 28, (+/−)-(1S,3S)-3-(4-(4-(((cyclopentyl(methyl)carbamoyl)oxy)methyl)-3-methylisothiazol-5-yl)phenoxy)cyclohexane-1-carboxylic Acid], the IC50 in series [1] was < 0.05 µM. Also, the “Cell migration inhibition rate (%)” value in series [2] is “A (A: 50-70%)”. Also, the CC50 at 48 h in series [3] is > 200 µM. Besides, the half-life in series [4] was > 30 min; in series [5] it was < 30 min; in series [6], > 0.5 h.
Consider `CN(C(=O)OCc1ocnc1-c1ccc(O[C@H]2CCC[C@H](C(=O)O)C2)cn1)C1CCCC1` (racemic) [Compound 14], for which, in series [1], the IC50 lay in the range of 0.3 to 10 µM. In addition, the “Cell migration inhibition rate (%)” value in series [2] is listed as “C (C: 0-30%)”. For the same compound, the CC50 at 48 h in series [3] was > 200 µM. Besides, the figures for the half-life in series [4], in series [5] and in series [6] were > 30 min, > 30 min and > 0.5 h, respectively.
Turning to `CN(C(=O)OCc1c(-c2ccc(O[C@H]3CCC[C@H](C(=O)O)C3)c(F)n2)cnn1C)C1CCCC1` (racemic) [Compound 62, (+/−)-(1S,3S)-3-((6-(5-(((cyclopentyl(methyl)carbamoyl)oxy)methyl)-1-methyl-1H-pyrazol-4-yl)-2-fluoropyridin-3-yl)oxy)cyclohexane-1-carboxylic Acid], the IC50 in series [1] was < 0.05 µM. Further, the “Cell migration inhibition rate (%)” value in series [2] is reported as “A (A: 50-70%)”. The CC50 at 48 h in series [3] is > 200 µM. Further, the half-life in series [4] was > 30 min; in series [5] it was ~30 min; in series [6], > 0.5 h.
For the compound `CN(C(=O)OCc1ocnc1-c1ccc(O[C@H]2CCC[C@H](C(=O)O)C2)c(F)c1)C1CCCC1` (racemic) [Compound 15, (+/−)-(1S,3S)-3-(4-(5-(((cyclopentyl(methyl)carbamoyl)oxy)methyl)oxazol-4-yl)-2-fluorophenoxy)cyclohexane-1-carboxylic Acid], in series [1], the IC50 lay in the range of 0.3 to 10 µM. Further, the “Cell migration inhibition rate (%)” value in series [2] is “C (C: 0-30%)”. The CC50 at 48 h in series [3] was > 200 µM. Further, the values for the half-life in series [4], in series [5] and in series [6] were > 30 min, > 30 min and > 0.5 h, respectively.
`CN(C(=O)OCc1c(-c2ccc(O[C@H]3CCC[C@H](C(=O)O)C3)cn2)ncn1C)C1CCCC1` (racemic) [Compound 19, (+/−)-(1S,3S)-3-((6-(5-(((cyclopentyl(methyl)carbamoyl)oxy)methyl)-1-methyl-1H-imidazol-4-yl)pyridin-3-yl)oxy)cyclohexane-1-carboxylic Acid]: the IC50 in series [1] fell in the range of 0.3 to 10 µM. Further, the “Cell migration inhibition rate (%)” value in series [2] is given as “C (C: 0-30%)”. Further, the CC50 in the series on HepG2 cells was > 200 µM.
For the compound `CN(C(=O)OCc1c(-c2ccc(O[C@H]3CCC[C@H](C(=O)O)C3)c(C(F)(F)F)n2)cnn1C)C1CCCC1` (racemic) [Compound 13, (+/−)-(1S,3S)-3-((6-(5-(((cyclopentyl(methyl)carbamoyl)oxy)methyl)-1-methyl-1H-pyrazol-4-yl)-2-(trifluoromethyl)pyridin-3-yl)oxy)cyclohexane-1-carboxylic Acid], the IC50 in series [1] lay within 0.05 to 0.3 µM. For the same compound, the “Cell migration inhibition rate (%)” value in series [2] was “B (B: 30-50%)”. The CC50 at 48 h in series [3] was > 200 µM. Besides, the half-life was determined as 68.8 min in series [4], 17.2 min in series [5] and 3.55 h in series [6].

For the origin of these results see patent US12377083B2 (WUHAN LL SCIENCE AND TECHNOLOGY DEVELOPMENT CO., LTD., priority 2019, dated 2025).
